Assay results taken from article PMC5474226 (Cancer research, 2017).
Read-outs that look alike come from different tables or passages of the source.

Assays:
granzyme B = conditions: tetrapeptide with C-terminus aspartate modified to aldehyde; ref [21],[22]; cited from earlier work
[1] = molecular target: granzyme B (activated from pro-granzyme B) (UniProt P04187); experiment: enzyme inhibition assay
[2] = system: advanced non-small cell lung cancer; conditions: ref [8], cited from earlier work

UniProt P04187, sequence (P04187 21-247): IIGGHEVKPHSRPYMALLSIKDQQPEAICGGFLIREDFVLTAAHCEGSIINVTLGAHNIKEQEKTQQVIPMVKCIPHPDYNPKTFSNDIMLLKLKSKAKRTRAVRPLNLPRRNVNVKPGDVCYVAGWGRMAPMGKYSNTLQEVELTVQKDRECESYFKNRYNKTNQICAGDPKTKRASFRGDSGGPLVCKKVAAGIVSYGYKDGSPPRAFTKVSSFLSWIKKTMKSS

## Ile-Glu-Phe-Asp
Granzyme B
  Ki: 80 nM

## NOTA–β-Ala–Gly–Gly–Ile–Glu–Phe–Asp–CHO (NOTA-GZP), gallium-labelled (peptide)
[1]
  Ki: 47 nM

## pembrolizumab
[2]; patients with >1% positive PD-L1 staining
  response rate: 18%
[2]; tumors with greater than 50% positive staining for PD-L1
  response rate: 30%
